We go through 35 compounds from ChEMBL document CHEMBL1135274, “Spirocyclic nonpeptide glycoprotein IIb-IIIa antagonists. Part 3: synthesis and SAR of potent and specific 2,8-diazaspiro[4.5]decanes” (Bioorg Med Chem Lett, 2002).

Molecules are shown by their SMILES.

Usually IC50 stands for the concentration needed to halve the response being measured. A low value points to higher potency. The bioavailability is the share of a dose that reaches the circulation, judged against a reference dose that is usually intravenous. Low readings indicate poor availability, high ones good availability. As usually defined, the half-life is the time needed for the level to fall by half in the phase considered. Read a high half-life as slow loss.

The species entered for data set [1] is Homo sapiens. In words: In vitro ability to inhibit aggregation of ADP stimulated human platelets using PRP assay. The class given is functional.
For data set [2], the target named is Integrin alpha-IIb/beta-3 (Homo sapiens, UniProt P05106+P08514). In words: In vitro activity to block the binding of fibrinogen to purified human fibrinogen receptor. In kind it is protein-complex assay.
A short description of data set [3]: Oral bioavailability in rat (Sprague-Dawley) (dose 1 mg/kg p.o.). The class given is ADME, organism-based. As to conditions: in vivo.
A short description of data set [4]: Plasma half life was reported after a intravenous dose of 1 mg/kg in Dawley rat. The class given is ADME, organism-based. Set-up: dose 1 mg/kg, route intravenous. The note with it: Sprague-Dawley.

Integrin alpha-IIb/beta-3, sequence (P05106 27-788 limits assumed): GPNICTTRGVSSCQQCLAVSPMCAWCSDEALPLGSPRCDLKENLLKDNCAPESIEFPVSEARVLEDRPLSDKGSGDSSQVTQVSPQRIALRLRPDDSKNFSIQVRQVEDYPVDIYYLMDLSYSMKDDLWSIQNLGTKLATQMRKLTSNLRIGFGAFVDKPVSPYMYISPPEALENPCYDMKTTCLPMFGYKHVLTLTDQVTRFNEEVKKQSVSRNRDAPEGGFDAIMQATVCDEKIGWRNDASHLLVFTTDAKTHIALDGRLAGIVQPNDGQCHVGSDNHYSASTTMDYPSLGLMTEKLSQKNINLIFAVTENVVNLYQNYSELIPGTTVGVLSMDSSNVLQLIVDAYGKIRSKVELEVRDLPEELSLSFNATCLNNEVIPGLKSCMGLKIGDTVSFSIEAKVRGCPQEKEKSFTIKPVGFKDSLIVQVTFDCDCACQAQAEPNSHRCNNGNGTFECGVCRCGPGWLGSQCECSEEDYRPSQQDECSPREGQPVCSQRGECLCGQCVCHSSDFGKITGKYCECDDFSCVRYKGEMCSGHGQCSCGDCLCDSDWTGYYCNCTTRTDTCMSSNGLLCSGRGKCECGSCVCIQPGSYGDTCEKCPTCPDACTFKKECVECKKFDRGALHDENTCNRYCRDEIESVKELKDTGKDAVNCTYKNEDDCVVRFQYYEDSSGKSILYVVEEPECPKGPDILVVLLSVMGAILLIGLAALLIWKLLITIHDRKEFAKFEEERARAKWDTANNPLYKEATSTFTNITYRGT
Integrin alpha-IIb/beta-3, sequence (P08514 32-887 limits assumed): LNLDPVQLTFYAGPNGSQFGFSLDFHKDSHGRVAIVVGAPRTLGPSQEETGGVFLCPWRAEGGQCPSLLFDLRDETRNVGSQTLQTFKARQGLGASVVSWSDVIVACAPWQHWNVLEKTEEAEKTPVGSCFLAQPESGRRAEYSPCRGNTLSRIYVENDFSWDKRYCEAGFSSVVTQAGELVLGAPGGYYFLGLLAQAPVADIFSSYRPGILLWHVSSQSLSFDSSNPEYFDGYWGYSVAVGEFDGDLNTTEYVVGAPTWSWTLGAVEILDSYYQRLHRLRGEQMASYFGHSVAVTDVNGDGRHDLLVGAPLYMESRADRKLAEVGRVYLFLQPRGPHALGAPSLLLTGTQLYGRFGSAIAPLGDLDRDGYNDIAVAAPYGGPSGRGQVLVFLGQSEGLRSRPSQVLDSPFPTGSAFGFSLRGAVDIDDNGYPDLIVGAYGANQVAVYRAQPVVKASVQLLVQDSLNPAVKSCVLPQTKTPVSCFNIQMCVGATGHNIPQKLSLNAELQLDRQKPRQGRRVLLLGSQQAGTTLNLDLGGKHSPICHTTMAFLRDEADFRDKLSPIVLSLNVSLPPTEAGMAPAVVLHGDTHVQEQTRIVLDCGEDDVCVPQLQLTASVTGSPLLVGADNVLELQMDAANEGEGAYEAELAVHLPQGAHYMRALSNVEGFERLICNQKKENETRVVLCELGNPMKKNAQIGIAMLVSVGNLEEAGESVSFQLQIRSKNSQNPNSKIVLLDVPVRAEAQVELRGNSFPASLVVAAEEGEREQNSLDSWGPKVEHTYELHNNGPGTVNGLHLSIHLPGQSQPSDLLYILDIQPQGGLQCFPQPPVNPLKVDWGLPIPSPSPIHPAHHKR
Integrin alpha-IIb/beta-3, sequence (P08514 891-1039 limits assumed): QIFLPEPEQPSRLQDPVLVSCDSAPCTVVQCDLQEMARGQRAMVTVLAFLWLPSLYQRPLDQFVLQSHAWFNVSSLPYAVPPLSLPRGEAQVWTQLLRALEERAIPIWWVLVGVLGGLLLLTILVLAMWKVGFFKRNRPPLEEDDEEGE

Turning to `O=C(O)CCCCCNC(=O)N1CCC2(CC1)CCN(c1ccncc1)C2`, the IC50 in data set [1] is 74000 nM; in data set [2], more than 50000 nM.
On the same counts, the results for `O=C(O)CCCNC(=O)N1CCC2(CC1)CCN(c1ccncc1)C2` are 80000 nM and more than 50000 nM.
The corresponding values for `O=C(O)C1CCN(C(=O)N2CCC3(CC2)CCN(c2ccncc2)C3)CC1` are 55000 nM and 4200 nM.
Consider `O=C(O)CN1CCC(C(=O)N2CCC3(CC2)CCN(c2ccncc2)C3)CC1`, for which the IC50 in data set [1] stood at 9500 nM; in data set [2] it was 320 nM.
For `O=C(O)CCn1ccc2cc(C(=O)N3CCC4(CC3)CCN(c3ccncc3)C4)ccc21`, the IC50 was determined as 23300 nM in data set [1] and 1800 nM in data set [2].
In data set [1], `O=C(O)CC(=O)NC1CCN(C(=O)N2CCC3(CC2)CCN(c2ccncc2)C3)C1` (stereo unspecified) showed an IC50 of 5900 nM.
With `O=C(O)[C@H](CCC(=O)N1CCC2(CC1)CCN(c1ccncc1)C2)NS(=O)(=O)c1cnoc1`, the bioavailability in data set [3] worked out at 12%. Moreover, the IC50 is 270 nM in data set [1] and 2 nM in data set [2]. This compound also had a half-life in data set [4] of 22.8 min.
Consider `O=C(O)CC(=O)N1CCC(C(=O)N2CCC3(CCN(c4ccncc4)CC3)C2)CC1`, for which the IC50 in data set [1] was determined as 1580 nM.
For `O=C(O)CC(=O)N1CCN(C(=O)N2CCC3(CC2)CCN(c2ccncc2)C3)CC1`, the IC50 in data set [1] was 680 nM; in data set [2], 136 nM.
The corresponding values for `O=C(O)CCN1CCN(C(=O)N2CCC3(CCN(c4ccncc4)CC3)C2)CC1=O` are 8340 nM and 238 nM.
Take `O=C(O)CCCCCC(=O)N1CCC2(CCN(c3ccncc3)CC2)C1`: the IC50 in data set [1] stood at 1300 nM; in data set [2] it was 43 nM.
The corresponding values for `O=C(O)CCCCNC(=O)N1CCC2(CC1)CCN(c1ccncc1)C2` are 10600 nM and 11900 nM.
As to `O=C(O)COC1CCN(C(=O)N2CCC3(CC2)CCN(c2ccncc2)C3)CC1`, in data set [1], the midpoint of inhibition, the IC50, lay at 3800 nM.
For the compound `CC(CC(=O)O)N1CCC(C(=O)N2CCC3(CC2)CCN(c2ccncc2)C3)CC1` (stereo unspecified), the values for the IC50 in data set [1] and in data set [2] were 3300 nM and 225 nM, respectively.
In turn, `CCCCOC(=O)N[C@@H](CCC(=O)N1CCC2(CC1)CCN(c1ccncc1)C2)C(=O)O` came in with an IC50 in data set [1] of 4000 nM.
In the case of `O=C(O)CC(=O)N1CCCN(C(=O)N2CCC3(CC2)CCN(c2ccncc2)C3)CC1`, half-maximal inhibition in data set [1] (IC50) was put at 700 nM.
With `O=C(O)CS(=O)(=O)N1CCC(C(=O)N2CCC3(CC2)CCN(c2ccncc2)C3)CC1`, the IC50 in data set [1] is 1100 nM; in data set [2], 90 nM.
Take `O=C(O)CC1CCN(C(=O)N2CCC3(CC2)CCN(c2ccncc2)C3)CC1`: the half-inhibitory concentration (IC50) in data set [1] amounted to 1200 nM; in data set [2], 115 nM.
With `O=C(O)CCNC(=O)N1CCC2(CC1)CCN(c1ccncc1)C2`, half-maximal inhibition in data set [1] (IC50) required 34600 nM.
Take `O=C(O)CC(=O)N1CCC(C(=O)N2CCC3(CC2)CCN(c2ccncc2)C3)CC1`: the bioavailability in data set [3] amounted to 10%. The values for the IC50 in data set [1] and in data set [2] were 260 nM and 4 nM, respectively. The half-life in data set [4] is 58.8 min.
Turning to `O=C(O)CCN1CCN(C(=O)N2CCC3(CC2)CCN(c2ccncc2)C3)CC1`, the half-maximal inhibitory concentration (IC50) in data set [1] is 3200 nM; in data set [2], 87 nM.
In the case of `CN(CC(=O)O)C1CCN(C(=O)N2CCC3(CC2)CCN(c2ccncc2)C3)CC1`, the values for the half-inhibitory concentration (IC50) in data set [1] and in data set [2] were 12400 nM and 1200 nM, respectively.
On to `O=C(O)CCCCC(=O)N1CCC2(CCN(c3ccncc3)CC2)C1`, for which the IC50 in data set [1] was 80000 nM; in data set [2], more than 50000 nM.
`O=C(O)CN1CCN(C(=O)N2CCC3(CC2)CCN(c2ccncc2)C3)CC1` yielded a 50% inhibitory concentration (IC50) in data set [1] of 8900 nM.
Turning to `O=C(N[C@@H](CCC(=O)N1CCC2(CC1)CCN(c1ccncc1)C2)C(=O)O)OCc1ccccc1`, the figures for the IC50 in data set [1] and in data set [2] were 4100 nM and 25 nM, respectively.
Consider `O=C(O)CCCCCCC(=O)N1CCC2(CCN(c3ccncc3)CC2)C1`, for which, in data set [1], 18800 nM corresponded to half-maximal inhibition (IC50).
Take `O=C(O)COc1cccc(C(=O)N2CCC3(CC2)CCN(c2ccncc2)C3)c1`: the IC50 was determined as 18300 nM in data set [1] and 873 nM in data set [2].
In the case of `O=C(O)COCC1CCN(C(=O)N2CCC3(CC2)CCN(c2ccncc2)C3)CC1`, in data set [1], half-maximal inhibition (IC50) was put at 2800 nM.
As for `O=C(O)COC1CCN(C(=O)N2CCC3(CCN(c4ccncc4)CC3)C2)CC1`, the half-maximal inhibitory concentration (IC50) in data set [1] was 1040 nM; in data set [2], 153 nM.
Consider `O=C(O)CCN1CCCN(C(=O)N2CCC3(CC2)CCN(c2ccncc2)C3)CC1`, for which the IC50 was 3700 nM in data set [1] and 254 nM in data set [2].
Regarding `O=C(O)CN1CCN(C(=O)N2CCC3(CCN(c4ccncc4)CC3)C2)CC1=O`, the half-maximal inhibitory concentration (IC50) in data set [1] amounted to 1180 nM; in data set [2], 25 nM.
In data set [1], `O=C(O)CCC(=O)N1CCN(C(=O)N2CCC3(CC2)CCN(c2ccncc2)C3)CC1` had an IC50 of 24100 nM.
`O=C(O)COc1ccc(C(=O)N2CCC3(CC2)CCN(c2ccncc2)C3)cc1` returned a concentration for half-maximal inhibition (IC50) in data set [1] of 11300 nM.
Compound `O=C(O)Cn1ccc2cc(C(=O)N3CCC4(CC3)CCN(c3ccncc3)C4)ccc21` came in with an IC50 in data set [1] of 950 nM.
In data set [1], `O=C(O)CCN1CCC(C(=O)N2CCC3(CC2)CCN(c2ccncc2)C3)CC1` showed an IC50 of 1000 nM.
